From patent US20250213555A1, “SUBSTITUTED TETRAHYDROFURAN ANALOGS AS MODULATORS OF SODIUM CHANNELS” (VERTEX PHARMACEUTICALS INCORPORATED, priority 2021, published 2025)

Molecular target: human Nav 1.8 (Homo sapiens, UniProt Q9Y5Y9)
Experiment: E-VIPR assay detecting and measuring Nav inhibition properties
Format: cell-based
Details: HEK cells expressing a truncated form of human Nav 1.8; compound numbers without "*" (not marked as run in the presence of human serum); read-out: measured IC50 value in the E-VIPR Assay
Summary of the method: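 Nav inhibition was read by E-VIPR: cells were electrically stimulated while coumarin/oxonol FRET emissions were recorded. Cells were HEK expressing a truncated human Nav 1.8 and co-transduced with KIR2.1, and were assayed in 25% final human serum.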

Sequence of human Nav 1.8 (Q9Y5Y9 126-399 limits assumed): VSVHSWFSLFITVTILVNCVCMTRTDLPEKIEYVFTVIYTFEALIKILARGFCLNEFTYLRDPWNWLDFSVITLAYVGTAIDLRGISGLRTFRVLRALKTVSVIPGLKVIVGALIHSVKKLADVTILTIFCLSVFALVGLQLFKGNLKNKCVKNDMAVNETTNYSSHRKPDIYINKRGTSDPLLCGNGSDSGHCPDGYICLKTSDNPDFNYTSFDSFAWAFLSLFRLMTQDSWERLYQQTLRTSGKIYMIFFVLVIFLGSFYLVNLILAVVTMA
Sequence of human Nav 1.8 (Q9Y5Y9 660-890 limits assumed): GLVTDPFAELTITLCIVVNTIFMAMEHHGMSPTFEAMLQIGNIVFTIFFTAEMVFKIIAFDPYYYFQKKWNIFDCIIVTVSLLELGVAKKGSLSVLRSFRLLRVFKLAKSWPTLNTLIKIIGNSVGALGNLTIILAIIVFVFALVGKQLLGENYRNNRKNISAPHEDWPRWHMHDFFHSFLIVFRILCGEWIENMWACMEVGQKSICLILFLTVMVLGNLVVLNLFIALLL
Sequence of human Nav 1.8 (Q9Y5Y9 1148-1722 limits assumed): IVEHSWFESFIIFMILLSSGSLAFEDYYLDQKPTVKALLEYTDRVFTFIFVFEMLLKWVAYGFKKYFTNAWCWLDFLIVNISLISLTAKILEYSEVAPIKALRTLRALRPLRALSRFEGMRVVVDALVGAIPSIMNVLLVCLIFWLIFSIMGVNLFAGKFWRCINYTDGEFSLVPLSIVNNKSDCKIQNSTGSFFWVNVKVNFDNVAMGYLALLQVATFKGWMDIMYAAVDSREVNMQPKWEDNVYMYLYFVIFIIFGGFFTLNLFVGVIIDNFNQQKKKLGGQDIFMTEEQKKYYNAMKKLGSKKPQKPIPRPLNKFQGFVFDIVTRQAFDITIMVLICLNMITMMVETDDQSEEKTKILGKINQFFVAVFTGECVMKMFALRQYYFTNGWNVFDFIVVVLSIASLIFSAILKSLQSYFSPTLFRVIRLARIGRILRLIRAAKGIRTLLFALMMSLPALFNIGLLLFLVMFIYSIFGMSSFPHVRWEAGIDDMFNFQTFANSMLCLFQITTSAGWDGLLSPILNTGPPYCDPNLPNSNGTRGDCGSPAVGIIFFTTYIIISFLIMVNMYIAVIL

SMILES | IC50
CC=C(CO)COc1c([C@H]2[C@H](C(=O)Nc3ccnc(C(N)=O)c3)O[C@@](C)(C(F)(F)F)[C@H]2C)ccc(F)c1F (single isomer, unassigned) [Compound 164, rel-4-((2R*,3S*,4S*,5R*)-3-(3,4-difluoro-2-((2-(hydroxymethyl)but-2-en-1-yl)oxy)phenyl)-4,5-dimethyl-5-(trifluoromethyl)tetrahydrofuran-2-carboxamido)picolinamide] | < 10 nM
COc1c([C@H]2[C@H](C(=O)Nc3ccnc(C(N)=O)c3)O[C@@](C)(C(F)(F)F)[C@H]2C)ccc(OCC2CC2)c1F (single isomer, unassigned) [Compound 144] | < 10 nM
C=C(COC)COc1c([C@H]2[C@H](C(=O)Nc3ccnc(C(N)=O)c3)O[C@@](C)(C(F)(F)F)[C@H]2C)ccc(F)c1F [Compound 135] | 10 to 100 nM
COc1c([C@H]2[C@H](C(=O)Nc3cc(C(=O)N4CCN(C)CC4)ncc3F)O[C@@](C)(C(F)(F)F)[C@H]2C)ccc(F)c1F [Compound 9, (2R,3S,4S,5R)-3-(3,4-difluoro-2-methoxyphenyl)-N-(5-fluoro-2-(4-methylpiperazine-1-carbonyl)pyridin-4-yl)-4,5-dimethyl-5-(trifluoromethyl)tetrahydrofuran-2-carboxamide] | < 10 nM
C[C@H]1[C@@H](c2ccc(F)c(F)c2OCCCN2CC(F)C2)[C@H](C(=O)Nc2ccnc(C(N)=O)c2)O[C@@]1(C)C(F)(F)F [Compound 133, 4-((2R,3S,4S,5R)-3-(3,4-difluoro-2-(3-(3-fluoroazetidin-1-yl)propoxy)phenyl)-4,5-dimethyl-5-(trifluoromethyl)tetrahydrofuran-2-carboxamido)picolinamide] | < 10 nM
C[C@H]1[C@@H](c2ccc(F)c(F)c2OCC2(CO)CCC2)[C@H](C(=O)Nc2ccnc(C(N)=O)c2)O[C@@]1(C)C(F)(F)F [Compound 97, 4-((2R,3S,4S,5R)-3-(3,4-difluoro-2-((1-(hydroxymethyl)cyclobutyl)methoxy)phenyl)-4,5-dimethyl-5-(trifluoromethyl)tetrahydrofuran-2-carboxamido)picolinamide] | 10 to 100 nM
COc1c([C@H]2[C@H](C(=O)Nc3ccnc(C(=O)N4C[C@H](N)[C@H](OC)C4)c3)O[C@@](C)(C(F)(F)F)[C@H]2C)ccc(F)c1F [Compound 257, (2R,3S,4S,5R)-N-(2-((3S,4R)-3-amino-4-methoxypyrrolidine-1-carbonyl)pyridin-4-yl)-3-(3,4-difluoro-2-methoxyphenyl)-4,5-dimethyl-5-(trifluoromethyl)tetrahydrofuran-2-carboxamide] | < 10 nM
COc1c([C@H]2[C@H](C(=O)Nc3ccnc(C(=O)N[C@H]4CCN(C)C4)c3)O[C@@](C)(C(F)(F)F)[C@H]2C)ccc(F)c1F [Compound 277, 4-((2R,3S,4S,5R)-3-(3,4-difluoro-2-methoxyphenyl)-4,5-dimethyl-5-(trifluoromethyl)tetrahydrofuran-2-carboxamido)-N-((S)-1-methylpyrrolidin-3-yl)picolinamide] | 10 to 100 nM
COc1c([C@H]2[C@H](C(=O)Nc3cc(C(=O)N4CCNCC4)ncc3C)O[C@@](C)(C(F)(F)F)[C@H]2C)ccc(F)c1F [Compound 15, (2R,3S,4S,5R)-3-(3,4-difluoro-2-methoxy-phenyl)-4,5-dimethyl-N-[5-methyl-2-(piperazine-1-carbonyl)-4-pyridyl]-5-(trifluoromethyl)tetrahydrofuran-2-carboxamide] | < 10 nM
C[C@H]1[C@@H](c2ccc(F)c(F)c2OCc2cnn(C)c2)[C@H](C(=O)Nc2ccnc(C(N)=O)c2)O[C@@]1(C)C(F)(F)F [Compound 73, 4-((2R,3S,4S,5R)-3-(3,4-difluoro-2-((1-methyl-1H-pyrazol-4-yl)methoxy)phenyl)-4,5-dimethyl-5-(trifluoromethyl)tetrahydrofuran-2-carboxamido)picolinamide] | < 10 nM
COc1c(C2CC3(COC3)OC2C(=O)Nc2ccnc(C(N)=O)c2)ccc(F)c1C (single isomer, unassigned) [Compound 24] | ≥ 1000 nM
CC(C)C(COc1c([C@H]2[C@H](C(=O)Nc3ccnc(C(N)=O)c3)O[C@@](C)(C(F)(F)F)[C@H]2C)ccc(F)c1F)=NO (single isomer, unassigned) [Compound 187, rel-4-((2R*,3S*,4S*,5R*)-3-(3,4-difluoro-2-(2-(hydroxyimino)-3-methylbutoxy)phenyl)-4,5-dimethyl-5-(trifluoromethyl)tetrahydrofuran-2-carboxamido)picolinamide] | < 10 nM
C[C@H](O)COc1c([C@H]2[C@H](C(=O)Nc3ccnc(C(N)=O)c3)O[C@@](C)(C(F)(F)F)[C@H]2C)ccc(F)c1F [Compound 153] | < 10 nM
COc1c([C@H]2[C@H](C(=O)Nc3ccnc(C(N)=O)c3)O[C@@](C)(C(F)(F)F)[C@H]2C)cc(O)c(F)c1F [Compound 178, 4-((2R,3S,4S,5R)-3-(3,4-difluoro-5-hydroxy-2-methoxyphenyl)-4,5-dimethyl-5-(trifluoromethyl)tetrahydrofuran-2-carboxamido) picolinamide] | < 10 nM
CC[C@H](CO)COc1c([C@H]2[C@H](C(=O)Nc3ccnc(C(N)=O)c3)O[C@@](C)(C(F)(F)F)[C@H]2C)ccc(F)c1F (single isomer, unassigned) [Compound 92, rel-4-((2R*,3S*,4S*,5R*)-3-(3,4-difluoro-2-(2-(hydroxymethyl)butoxy)phenyl)-4,5-dimethyl-5-(trifluoromethyl)tetrahydrofuran-2-carboxamido)picolinamide] | 10 to 100 nM
COc1c([C@H]2[C@H](C(=O)Nc3ccnc(C(=O)N4CC5(CCCN5C)C4)c3)O[C@@](C)(C(F)(F)F)[C@H]2C)ccc(F)c1F [Compound 270, (2R,3S,4S,5R)-3-(3,4-difluoro-2-methoxyphenyl)-4,5-dimethyl-N-(2-(5-methyl-2,5-diazaspiro[3.4]octane-2-carbonyl)pyridin-4-yl)-5-(trifluoromethyl)tetrahydrofuran-2-carboxamide] | 10 to 100 nM
C[C@H]1[C@@H](c2ccc(F)c(F)c2OCc2nccn2C)[C@H](C(=O)Nc2ccnc(C(N)=O)c2)O[C@@]1(C)C(F)(F)F [Compound 61, 4-((2R,3S,4S,5R)-3-(3,4-difluoro-2-((1-methyl-1H-imidazol-2-yl)methoxy)phenyl)-4,5-dimethyl-5-(trifluoromethyl)tetrahydrofuran-2-carboxamido)picolinamide] | < 10 nM
CNC(=O)c1cc(NC(=O)[C@@H]2O[C@@](C)(C(F)(F)F)[C@@H](C)[C@H]2c2ccc(F)c(F)c2OCC2COC2)ccn1 [Compound 66] | < 10 nM
COc1c([C@H]2[C@H](C(=O)Nc3ccnc(C(=O)N4CCC(N(C)C)C4)c3)O[C@@](C)(C(F)(F)F)[C@H]2C)ccc(F)c1F (single isomer, unassigned) [Compound 264, rel-(2R*,3S*,4S*,5R*)-3-(3,4-difluoro-2-methoxyphenyl)-N-(2-(3-(dimethylamino)pyrrolidine-1-carbonyl)pyridin-4-yl)-4,5-dimethyl-5-(trifluoromethyl)tetrahydrofuran-2-carboxamide] | < 10 nM
C[C@H]1[C@@H](c2ccc(F)c(F)c2COC2COC2)[C@H](C(=O)Nc2ccnc(C(N)=O)c2)O[C@@]1(C)C(F)(F)F [Compound 211, 4-((2R,3S,4S,5R)-3-(3,4-difluoro-2-((oxetan-3-yloxy)methyl)phenyl)-4,5-dimethyl-5-(trifluoromethyl)tetrahydrofuran-2-carboxamido) picolinamide] | < 10 nM
C[C@H]1[C@@H](c2ccc(F)c(F)c2O[C@H]2C[C@@H](O)C2)[C@H](C(=O)Nc2ccc(F)c(C(N)=O)c2)O[C@@]1(C)C(F)(F)F [Compound 202] | < 10 nM
C[C@H]1[C@@H](c2ccc(F)c(F)c2OC[C@H]2C[C@](O)(C(F)(F)F)C2)[C@H](C(=O)Nc2ccnc(C(N)=O)c2)O[C@@]1(C)C(F)(F)F [Compound 7, 4-((2R,3S,4S,5R)-3-(3,4-difluoro-2-(((1s,3R)-3-hydroxy-3-(trifluoromethyl)cyclobutyl)methoxy)phenyl)-4,5-dimethyl-5-(trifluoromethyl)tetrahydrofuran-2-carboxamido)picolinamide] | 10 to 100 nM
COc1c([C@H]2[C@H](C(=O)Nc3ccnc(C(=O)N4C[C@@H](F)[C@@H](N(C)C)C4)c3)O[C@@](C)(C(F)(F)F)[C@H]2C)ccc(F)c1F [Compound 296, (2R,3S,4S,5R)-3-(3,4-difluoro-2-methoxyphenyl)-N-(2-((3S,4R)-3-(dimethylamino)-4-fluoropyrrolidine-1-carbonyl)pyridin-4-yl)-4,5-dimethyl-5-(trifluoromethyl)tetrahydrofuran-2-carboxamide] | < 10 nM
C[C@H]1[C@@H](c2ccc(F)c(F)c2OCCc2nccn2C)[C@H](C(=O)Nc2ccnc(C(N)=O)c2)O[C@@]1(C)C(F)(F)F [Compound 87, 4-((2R,3S,4S,5R)-3-(3,4-difluoro-2-(2-(1-methyl-1H-imidazol-2-yl)ethoxy)phenyl)-4,5-dimethyl-5-(trifluoromethyl)tetrahydrofuran-2-carboxamido)picolinamide] | 10 to 100 nM
COCCOc1c([C@@H]2[C@@H](C(=O)Nc3ccnc(C(N)=O)c3)O[C@](C)(C(F)(F)F)[C@@H]2C)ccc(F)c1F (stereo in doubt) [Compound 1, rel-4-((2S,3R,4R,5S)-3-(3,4-difluoro-2-(2-methoxyethoxy)phenyl)-4,5-dimethyl-5-(trifluoromethyl)tetrahydrofuran-2-carboxamido) picolinamide] | 100 to 1000 nM
CN[C@H]1CN(C(=O)c2cc(NC(=O)[C@@H]3O[C@@](C)(C(F)(F)F)[C@@H](C)[C@H]3c3ccc(F)c(F)c3OC)ccn2)C[C@H]1F [Compound 292, (2R,3S,4S,5R)-3-(3,4-difluoro-2-methoxyphenyl)-N-(2-((3R,4S)-3-fluoro-4-(methylamino)pyrrolidine-1-carbonyl)pyridin-4-yl)-4,5-dimethyl-5-(trifluoromethyl)tetrahydrofuran-2-carboxamide] | < 10 nM
